{"source": "patent US20150183743A1", "about": "“COMPOUND AND USE OF COMPOUND TO PREPARE A RADIOLABELLED COMPOUND” (STICHTING VU-VUMC, priority 2012, published 2015)", "key": {"[1]": {"target": "T1, ifenprodil binding site of NR2B subunit containing NMDA receptors (Rattus norvegicus, UniProt P35439+Q00960)", "T1 construct": "400 μl of the membrane suspension, containing a total amount of 2.5 mg original wet weight of tissue; from tissue; host or cells: rat forebrain membranes", "T1 sequence (Q00960 27-1482, other chains not shown)": "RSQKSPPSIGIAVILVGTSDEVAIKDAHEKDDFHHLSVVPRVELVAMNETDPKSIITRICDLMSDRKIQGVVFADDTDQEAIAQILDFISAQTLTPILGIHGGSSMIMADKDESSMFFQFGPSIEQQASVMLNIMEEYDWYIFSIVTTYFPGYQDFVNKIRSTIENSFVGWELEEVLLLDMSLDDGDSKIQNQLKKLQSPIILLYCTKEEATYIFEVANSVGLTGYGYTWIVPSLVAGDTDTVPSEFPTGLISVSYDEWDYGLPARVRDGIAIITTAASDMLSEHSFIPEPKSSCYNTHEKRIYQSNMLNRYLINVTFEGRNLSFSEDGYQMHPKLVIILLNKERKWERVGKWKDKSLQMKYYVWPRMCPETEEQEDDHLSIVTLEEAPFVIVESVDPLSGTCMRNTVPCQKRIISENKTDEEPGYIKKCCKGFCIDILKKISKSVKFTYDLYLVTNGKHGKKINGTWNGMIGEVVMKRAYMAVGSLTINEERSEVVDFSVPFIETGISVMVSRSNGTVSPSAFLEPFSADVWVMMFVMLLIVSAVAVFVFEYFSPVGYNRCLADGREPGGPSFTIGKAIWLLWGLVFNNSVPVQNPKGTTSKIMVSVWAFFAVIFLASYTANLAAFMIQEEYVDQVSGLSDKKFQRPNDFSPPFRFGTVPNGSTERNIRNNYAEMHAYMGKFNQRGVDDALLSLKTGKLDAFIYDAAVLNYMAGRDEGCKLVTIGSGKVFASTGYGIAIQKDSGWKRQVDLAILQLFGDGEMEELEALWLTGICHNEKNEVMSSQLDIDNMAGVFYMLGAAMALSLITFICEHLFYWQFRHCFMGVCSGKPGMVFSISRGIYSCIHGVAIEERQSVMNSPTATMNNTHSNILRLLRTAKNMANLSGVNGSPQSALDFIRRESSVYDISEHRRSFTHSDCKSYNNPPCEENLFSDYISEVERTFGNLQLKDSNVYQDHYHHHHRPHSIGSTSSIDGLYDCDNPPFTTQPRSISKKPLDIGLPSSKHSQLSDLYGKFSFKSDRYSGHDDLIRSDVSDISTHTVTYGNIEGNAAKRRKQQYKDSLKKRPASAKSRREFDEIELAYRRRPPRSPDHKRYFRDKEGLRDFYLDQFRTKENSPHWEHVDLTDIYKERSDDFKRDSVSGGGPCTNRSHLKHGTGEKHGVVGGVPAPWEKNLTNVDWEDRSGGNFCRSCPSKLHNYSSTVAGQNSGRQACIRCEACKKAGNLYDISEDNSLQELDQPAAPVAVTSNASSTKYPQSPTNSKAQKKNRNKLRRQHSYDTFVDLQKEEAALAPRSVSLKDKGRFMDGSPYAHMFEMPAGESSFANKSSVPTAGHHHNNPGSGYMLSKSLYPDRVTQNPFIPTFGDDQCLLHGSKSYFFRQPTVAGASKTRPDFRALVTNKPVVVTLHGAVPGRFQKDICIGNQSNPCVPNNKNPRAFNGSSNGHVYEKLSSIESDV", "experiment": "Competition binding assay against [3H]ifenprodil on rat forebrain membranes", "details": "displacement of 5 nM [3H]ifenprodil; mean±SEM of 2-6 determinations in triplicate", "experimental": "Male Wistar rats (180-200 g) were killed by decapitation. The forebrains were rapidly removed and homogenized using a DUALL tissue homogenizer (10 strokes, 2000 rpm), in a 10-fold excess (v/w) of ice-cold 0.25 M sucrose. The nuclei and cell debris were removed by centrifugation (10 min×400×g), in a Beckman refrigerated ultracentrifuge (rotor 60Ti). The resulting pellet was rehomogenized in 5 vol 0.25 sucrose and recentrifuged. The combined supernatants were diluted in Tris-acetate buffer (50 mM, pH 7.4) to a final dilution of 40 v/w, and centrifuged for 30 min×200,000×g, in order to obtain membranes from the cell surface, mitochondrial, and microsomal fractions. The pellet was resuspended in 20 volumes of Tris-HCl+0.01% Triton buffer (pH 7.4), kept at 37° C. for 10 min, and recentrifuged. The final pellet was suspended in Tris-HCl buffer (dilution 5, pH 7.4), and stored at −80° C. in 5 ml aliquots. On the day of each experiment, membranes were thawed to room temperature and washed twice by centrifugation (30 min×200,000×g). After the final centrifugation, pellets were suspended in 80 volumes (v/w) of 50 mM Tris-HCl buffer (pH 7.4).\nCompetition binding experiments were carried out on ice, in a final volume of 500 μl assay buffer (50 mM Tris-HCl, pH 7.4), containing 5 μM GBR 12909 to block […] binding. The incubation mixture was composed of 400 μl of the membrane suspension, containing a total amount of 2.5 mg original wet weight of tissue, 50 μl of [^3H]ifenprodil, and 5 μl of unlabelled drug solution (final DMSO concentration: 1%). Nonspecific binding was determined in the presence of 10 μM Ro 25-6981. Incubations were terminated after 2 hr by filtration through 0.3% PEI-embedded Whatman GF/B filters, using a 48-well Brandel harvester. The filters were washed three times with 3 ml of ice cold Tris-HCl buffer (pH 7.4), and radioactivity was determined by liquid scintillation spectrometry in 5 ml of Optiphase-HiSafe 3, at an efficiency of 40%.\nKi values were determined by nonlinear regression analysis using the equation: log EC50=log [10̂log Ki*(1+RadioligandNM/HotKdNM)], (GraphPad Software Inc., San Diego, Calif.)."}, "[2]": {"experiment": "Biodistribution of [11C]HC-242 in anaesthetized mice", "assay_type": "in vivo, B6C3F1/J mice", "experimental": "Animals were anaesthetized with a 1:2:1 mixture of ffm [fentanyl/fluanisone (Hypnorm™; Vetapharma, Leeds, UK), sterile water, midazolam (Dormicum™; Actavis, Harnarfjordur, Iceland)]. The anaesthetic was administered intraperitoneally (11 ml/kg), 5 min prior to radiotracer administration. […] Following the injections, mice were killed by cervical dislocation at 5, 15, 30, or 60 min (n=4/time point). At each time point, blood was obtained by heart punctures and selected organs, including the heart, liver, kidneys, lungs and brain were removed. The brain was further dissected into frontal cortex, olfactory tubercle, striatum, cerebral cortex (bregma 1.70-0.02 mm), entorhinal cortex, hippocampus, hypothalamus, cerebellum, and pons/medulla oblongata. All organs and brain areas were weighed, and recovered radioactivity was determined in a 1282 Compugamma CS (LKB Wallac, Turku, Finland), using 5×10 μl aliquots of the injected formulation as standard. Results are expressed as the differential absorption ratio (DAR): (cpm recovered/g tissue)/(cpm injected/g body weight). Two-way repeated measures ANOVA, followed by Fisher's LSD post-hoc comparisons, was used for analysis of radiotracer uptake in different brain regions (or organs), at different time points."}, "[3]": {"target": "T2, NR2B site of NMDA receptors (Mus musculus, UniProt P35438+Q01097)", "T2 construct": "from tissue; host or cells: mouse brain (sections in vitro; whole brain in vivo)", "T2 sequence (Q01097 27-1482, other chains not shown)": "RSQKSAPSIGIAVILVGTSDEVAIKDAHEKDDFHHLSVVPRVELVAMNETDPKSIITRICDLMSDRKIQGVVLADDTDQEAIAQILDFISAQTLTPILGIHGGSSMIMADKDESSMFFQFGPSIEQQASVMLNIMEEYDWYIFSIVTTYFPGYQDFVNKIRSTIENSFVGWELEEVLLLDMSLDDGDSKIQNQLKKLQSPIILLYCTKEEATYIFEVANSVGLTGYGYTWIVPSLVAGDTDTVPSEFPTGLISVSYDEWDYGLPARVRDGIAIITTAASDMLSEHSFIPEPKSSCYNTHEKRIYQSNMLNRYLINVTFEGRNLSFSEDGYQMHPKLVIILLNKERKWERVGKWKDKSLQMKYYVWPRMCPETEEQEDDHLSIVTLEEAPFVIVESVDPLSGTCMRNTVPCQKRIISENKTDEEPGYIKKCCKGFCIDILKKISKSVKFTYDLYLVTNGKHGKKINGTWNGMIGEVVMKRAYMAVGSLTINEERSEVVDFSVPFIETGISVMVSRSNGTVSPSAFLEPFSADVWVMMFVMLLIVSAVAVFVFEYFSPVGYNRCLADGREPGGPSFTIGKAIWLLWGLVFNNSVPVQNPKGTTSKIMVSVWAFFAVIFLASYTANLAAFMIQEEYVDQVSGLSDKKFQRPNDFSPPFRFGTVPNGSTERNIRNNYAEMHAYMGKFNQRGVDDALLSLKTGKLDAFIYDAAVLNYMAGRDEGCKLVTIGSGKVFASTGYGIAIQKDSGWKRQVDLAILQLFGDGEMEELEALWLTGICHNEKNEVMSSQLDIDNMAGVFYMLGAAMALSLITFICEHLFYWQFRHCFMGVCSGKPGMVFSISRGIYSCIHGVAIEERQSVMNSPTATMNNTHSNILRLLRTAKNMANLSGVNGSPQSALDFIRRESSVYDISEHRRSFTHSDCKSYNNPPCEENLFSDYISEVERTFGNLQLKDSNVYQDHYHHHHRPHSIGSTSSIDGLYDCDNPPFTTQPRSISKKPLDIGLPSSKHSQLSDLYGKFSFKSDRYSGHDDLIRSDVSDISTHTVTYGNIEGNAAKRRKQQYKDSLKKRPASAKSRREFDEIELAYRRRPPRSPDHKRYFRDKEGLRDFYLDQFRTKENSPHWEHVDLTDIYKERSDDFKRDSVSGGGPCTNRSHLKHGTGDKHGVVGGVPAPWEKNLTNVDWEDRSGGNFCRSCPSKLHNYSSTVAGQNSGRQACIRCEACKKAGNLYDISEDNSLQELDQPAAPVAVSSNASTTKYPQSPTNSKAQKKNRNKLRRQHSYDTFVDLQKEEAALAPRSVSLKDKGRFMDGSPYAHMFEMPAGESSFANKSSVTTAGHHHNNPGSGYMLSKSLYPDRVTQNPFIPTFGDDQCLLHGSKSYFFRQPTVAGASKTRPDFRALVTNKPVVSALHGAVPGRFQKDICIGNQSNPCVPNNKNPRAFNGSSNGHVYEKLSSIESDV", "experiment": "In vitro autoradiography of [11C]HC-242 on mouse brain sections (non-specific: 1 μM Ro25-6981)", "assay_type": "binding, B6C3F1/J mice", "experimental": "20 μm thick coronal brain sections were thawed from −20° C. to room temperature, pre-washed 2×10 min in assay buffer (50 mM Tris-HCl, pH 7.4), and dried. […] To determine non-specific binding, a series of immediately adjacent brain sections was incubated in the same buffer, in the presence of 1 μM Ro25-6981. Incubations were terminated by 1 min washing into ice-cold assay buffer (pH 7.4), followed by a rapid rinse in ice-cold demi water. The sections were then air dried and opposed overnight to Kodak BioMax MR-1 film, which was developed in Kodak D19 developer and fixed with Kodak rapid fixer (Sigma-Aldrich, Zwijndrecht, the Netherlands). […] Specific binding was quantified following the subtraction of […] binding images."}, "[4]": {"target": "T2, NR2B site of NMDA receptors", "experiment": "Blocking of [11C]HC-242 brain uptake by Ro25-6981 in anaesthetized mice (ex vivo autoradiography)", "parameters": "species or system B6C3F1/J mice", "details": "for mean % change: blocked (Ro25-6981) vs unblocked", "experimental": "15 min after radiotracer injection, mice were killed by cervical dislocation, and the brains were removed, frozen in liquid nitrogen and processed for quantitative autoradiography. 20 μm coronal brain sections from control and Ro25-6981 treated mice were obtained at −21° C. in a Leica CM3050S cryostat (Leica Microsystems, Rijswijk, the Netherlands), and were immediately opposed to phosphor storage screens. The screens were read in a Storm™ 860 Phosphorimager on the following day, and the images obtained were analyzed using ImageQuant TL 8.1 software (GE Healthcare Europe GmbH, Diegem, Belgium). A series of immediately adjacent brain sections were opposed to Kodak Biomax MR-1 film, which was developed after overnight exposure, to obtain high resolution images. […] Analysis of radiotracer uptake in control and blocked mice across different brain regions was performed using two-way ANOVA."}, "[5]": {"experiment": "Determination of Log Doct,7.4", "assay_type": "physicochemical", "details": "1-octanol / 0.2M phosphate buffer pH 7.4, room temperature, triplicate", "experimental": "The distribution of the radio labelled compounds between 1-octanol and 0.2M phosphate buffer (pH=7.4) was measured in triplicate at room temperature. Briefly, 1 mL of a 20 MBq/mL solution of the radio labelled compound in 0.2M phosphate buffer (pH=7.4) was vigorously mixed with 1 mL of 1-octanol for 1 min at room temperature using a vortex. After a settling period of 30 min, five samples of 100 μL were taken from both layers. For determining recovery, 5 samples of 100 μL were taken from the 20 MBq/mL solution. All samples were counted for radioactivity. The Log Doct,7.4 value was calculated according to Log Doct,7.4=^10Log(Aoct/Abuffer), where Aoct and Abuffer represent the average radioactivity counted of the 5 1-octanol and 5 buffer samples, respectively."}}, "note": "Where a name gives a salt, the structure may show the parent alone.", "data": [{"smiles": "COc1cc(F)ccc1-c1cncc(CNCC2CC2)c1", "note": "[Example 2, 1-cyclopropyl-N-((5-(4-fluoro-2-methoxyphenyl)pyridin-3-yl)methyl)methanamine dihydrochloride]", "values": [{"measurement": "Ki", "setting": "[1]", "result": "8.7 ± 1.2", "unit": "nM"}]}, {"smiles": "COc1cc(F)ccc1-c1cccc(CNCC2CC2)c1", "note": "[Example 4, 1-cyclopropyl-N-((4′-fluoro-2′-methoxy-[1,1′-biphenyl]-3-yl)methyl)methanamine hydrochloride]", "values": [{"measurement": "Ki", "setting": "[1]", "result": "67.7 ± 8.1", "unit": "nM"}]}, {"smiles": "Oc1cc(F)ccc1-c1cncc(CNC2CCCC2)c1", "note": "[Example 5, 2-(5-((cyclopentylamino)methyl)pyridin-3-yl)-5-fluorophenol]", "values": [{"measurement": "Ki", "setting": "[1]", "result": "1300 ± 600", "unit": "nM"}]}, {"smiles": "FCOc1cc(F)ccc1-c1cncc(CNC2CCCC2)c1", "note": "[Example 6, N-((5-(4-fluoro-2-(fluoromethoxy)phenyl)pyridin-3-yl)methyl)cyclopentanamine dihydrochloride]", "values": [{"measurement": "Ki", "setting": "[1]", "result": "15.4 ± 1.3", "unit": "nM"}]}, {"smiles": "FCCOc1cc(F)ccc1-c1cncc(CNC2CCCC2)c1", "note": "[Example 7, N-((5-(4-fluoro-2-(2-fluoroethoxyl)phenyl)pyridin-3-yl)methyl)cyclopentanamine dihydrochloride]", "values": [{"measurement": "Ki", "setting": "[1]", "result": "156 ± 21.8", "unit": "nM"}]}, {"smiles": "Fc1ccc(-c2cncc(CNC3CCCC3)c2)cc1", "note": "[Example 10, N-((5-(4-fluorophenyl)pyridin-3-yl)methyl)cyclopentanamine dihydrochloride]", "values": [{"measurement": "Ki", "setting": "[1]", "result": "3.3 ± 1.9", "unit": "nM"}]}, {"smiles": "Fc1ccc(-c2cccc(CNC3CCCC3)c2)cc1", "note": "[Example 11, N-((4′-fluoro-[1,1′-biphenyl]-3-yl)methyl)cyclopentanamine hydrochloride]", "values": [{"measurement": "Ki", "setting": "[1]", "result": "13.1 ± 1.8", "unit": "nM"}]}, {"smiles": "Fc1ccc(-c2cncc(CNCC3CC3)c2)cc1", "note": "[Example 12, 1-cyclopropyl-N-((5-(4-fluorophenyl)pyridin-3-yl)methyl)methanamine dihydrochloride]", "values": [{"measurement": "Ki", "setting": "[1]", "result": "2.9 ± 0.3", "unit": "nM"}]}, {"smiles": "[11CH3]Oc1cc(F)ccc1-c1cncc(CNC2CCCC2)c1", "note": "[[^11C]HC-242, N-((5-(4-fluoro-2-^11C-methoxyphenyl)pyridin-3-yl)methyl)cyclopentanamine]", "values": [{"measurement": "DAR", "setting": "[2]; blood, 5 min", "result": "0.04±0.01"}, {"measurement": "DAR", "setting": "[2]; cerebellum, 15 min", "result": "0.14±0.01"}, {"measurement": "DAR", "setting": "[2]; cerebral cortex, 15 min", "result": "0.25±0.03"}, {"measurement": "DAR", "setting": "[2]; entorhinal cortex, 15 min", "result": "0.62±0.22"}, {"measurement": "DAR", "setting": "[2]; frontal cortex, 15 min", "result": "0.26±0.02"}, {"measurement": "DAR", "setting": "[2]; heart, 5 min", "result": "0.19±0.04"}, {"measurement": "DAR", "setting": "[2]; hippocampus, 15 min", "result": "0.33±0.03"}, {"measurement": "DAR", "setting": "[2]; liver, 5 min", "result": "0.15±0.05"}, {"measurement": "DAR", "setting": "[2]; pons/medulla oblongata, 15 min", "result": "0.14±0.02"}, {"measurement": "DAR", "setting": "[2]; striatum, 15 min", "result": "0.24±0.03"}, {"measurement": "mean percentage of specific binding", "setting": "[3]; across all brain regions analyzed", "result": "24.0±3.5", "unit": "%"}, {"measurement": "Specific labelling", "setting": "[3]; cerebral cortex, hippocampus, olfactory tubercle, striatum", "result": "high"}, {"measurement": "percentage of specific binding", "setting": "[3]; olfactory tubercle", "result": "39.6±10.4", "unit": "%"}, {"measurement": "Specific labelling", "setting": "[3]; subthalamic brain regions", "result": "absent"}, {"measurement": "Specific labelling", "setting": "[3]; thalamus", "result": "low"}, {"measurement": "percentage of specific binding", "setting": "[3]; thalamus", "result": "3.3±2.1", "unit": "%"}, {"measurement": "mean % change", "setting": "[4]; Experiment No 1, [11C]HC-242 23.7 μM at t0", "result": "−22.5", "unit": "%"}, {"measurement": "mean % change", "setting": "[4]; Experiment No 2, [11C]HC-242 2.6 μM at t0", "result": "−21.9", "unit": "%"}, {"measurement": "mean % change", "setting": "[4]; Experiment No 3, [11C]HC-242 14.6 μM at t0", "result": 33.3, "unit": "%"}, {"measurement": "mean decrease in radioactivity uptake induced by Ro25-6981", "setting": "[4]; Ro25-6981 10.0 mg/kg i.p. pretreatment, across all brain regions, pairs showing decrease", "result": "22.3±1.9", "unit": "%"}, {"measurement": "mean increase in radioactivity uptake induced by Ro25-6981", "setting": "[4]; Ro25-6981 10.0 mg/kg i.p. pretreatment, across all brain regions, pairs showing increase", "result": "29.4±4.2", "unit": "%"}, {"measurement": "logD", "setting": "[5]", "result": "2.14 ± 0.02"}]}]}
